Measured values from patent publication US20130172407A1, “Inhibition of Cancer Cell Proliferation Using Oleoylethanolamide” (China Medical University, priority 2011, published 2013).

Experiments:
Format in all cases: cell-based, Human
[1] = test system: p-NF-κB p65; assay: Western Blotting analysis of nuclear protein, p-NF-κB p65 expression in HT-29 cells; conditions: HT-29 nuclear protein; OEA 200 μM, lycopene 2 and 5 μM compared to control group; synergy groups compared to OEA group 3 and lycopene groups 1 and 2; FIG. 10
Protocol: (§1) In order to detect the protein expression of HT-29 cells, the HT-29 cell culture treated with different solutions for use in the instant experiment was obtained substantially according to “B. Treatment of various cancer cell lines with OEA solutions, lycopene solutions and combined solutions” in the above Example 2. The difference was that the cells of each group were cultured in a culture dish having a diameter of 10 cm. Experimental groups were added with different solutions according to those shown in Table 3 and the amount added was 10 mL.
(§2) Then, the HT-29 cell cultures of the control group, OEA group 3, lycopene groups 1 and 2 and synergy groups 1 and 2 were washed with PBS twice followed by adding 75 μL lysis buffer (containing PBS, 1% Ipegal CA-630 (Sigma, St. Louis, Mo.), 0.5% sodium deoxycholate, 0.1% SDS, 100 μM phenylmethylsulfonyl fluoride, 20 μg/mL aprotinin, 1 mM PMSF and 3 μM sodium orthovanadate) and uniformly mixing. The resultant cell mixtures were subjected to nuclear protein extraction using NE-PER® Nuclear and Cytoplasmic Extraction Reagents (Thermo Scientific, Cat. No. 78833) according to the manufacturer's operation guide, thereby obtaining nuclear protein samples. […]

[2] = test system: HT-29 cells; assay: MTT cell viability analysis, HT-29 cells; conditions: 24 hours, OEA 50, 100, 200 μM and lycopene 2, 5 μM compared to control group, synergy groups (200 μM OEA + 2 or 5 μM lycopene) compared to OEA group 3 and lycopene groups 1 and 2, FIG. 1
Protocol: (§3) HT-29 cells were cultured in a 75-cm^2 flask containing McCoy's medium (Invitrogen Inc., Carlsbad, Calif., USA) supplemented with 10% Fetal Bovine Serum (FBS), 2 mM glutamine and 1.5 g/L sodium bicarbonate. The remaining cells were cultured in a 75-cm^2 flask containing RPMI 1640 medium (Hyclone, Grand Island, N.Y., USA) supplemented with 10% Fetal Bovine Serum (FBS), 2 mM glutamine and 1.5 g/L sodium bicarbonate. These cells were cultured in an incubator with culture conditions set at 37° C. and 5% CO2. […]
(§4) • {3-[4,5-Dimethylthiazol-2-yl]-2,5-diphenyltetrazolium bromide} (MTT, 0.5 mg/mL, 200 μL) was added to the cell culture of each group, followed by incubation in an incubator (37° C., 5% CO2) for 2 hours. […] The absorbance at 570 nm (OD570) for each well was detected using a microplate reader (Tecan Inc., Mannedorf, Switzerland).
(§5) Cell viability percentage (%) was calculated by substituting the detected absorbance (OD570) to the following formula (1):
(§6) A=(B/C)×100 Formula (1): • wherein: • A=cell viability percentage (%) • B=the detected OD570 absorbance of each group • C=the detected OD570 absorbance of control group

[3] = test system: HT-29 cells; assay: FITC Annexin V / PI flow cytometry, cell death (apoptosis); conditions: FITC Annexin V and PI positive, OEA 200 μM and lycopene 5 μM compared to control group, synergy groups compared to OEA group 3 and lycopene group 2, FIG. 11
Protocol: In order to further investigate the usefulness of OEA and its combination with lycopene in inducing cell apoptosis of human colorectal cancer cell line HT-29, HT-29 cell cultures of control group, OEA group 3, lycopene groups 1 and 2 and synergy groups 1 and 2 obtained according to the above Item B in Example 2 were used for subsequent experiments.
First, the cell culture of each group was collected and washed with cold PBS twice followed by centrifugation at 300 g for 5 minutes. The supernatant was removed and 1× Annexin V Binding Buffer (BD Pharmingen™) was added to sufficiently re-suspend the cell pellet thereby obtaining a cell suspension having a cell concentration of 1×10^5 cells/mL. […]
Then, the stained cells were analyzed using BD FACSAria™ flow cytometry, wherein cells stained with FITC Annexin V and PI, i.e., FITC Annexin V positive and PI positive, represent cells that were induced with apoptosis and died, while cells that could not be stained with FITC Annexin V and PI, i.e., FITC Annexin V negative and PI negative, represent viable cells. The number of cells stained with FITC Annexin V and PI was calculated using BD FACSDiVa™ software.
The cell death percentage (%) of each group was calculated by substituting the detected cell number to the following formula (2): […]

[4] = test system: cyclin D1; assay: Western Blotting analysis of nuclear protein, cyclin D1 expression in HT-29 cells; conditions: HT-29 nuclear protein; OEA 200 μM, lycopene 2 and 5 μM compared to control group; synergy groups compared to OEA group 3 and lycopene groups 1 and 2; FIG. 10
Protocol: as §1, §2

[5] = test system: HCT 116 cells; assay: MTT cell viability analysis, HCT 116 cells; conditions: 24 hours, OEA 50, 100, 200 μM and lycopene 2, 5 μM compared to control group, synergy groups (200 μM OEA + 2 or 5 μM lycopene) compared to OEA group 3 and lycopene groups 1 and 2, FIG. 2
Protocol: as §3, §4, §5, §6

[6] = test system: HT-29 cells; assay: Flow cytometry cell cycle analysis (PI staining, Sub-G1 phase); conditions: 24 hours, OEA 50, 100, 200 μM, lycopene 2, 5 μM, synergy groups (200 μM OEA + 2 or 5 μM lycopene) compared to OEA groups 1-3 and lycopene groups 1 and 2, FIG. 9
Protocol: In order to understand the effect of OEA and its combination with lycopene on the cell cycle and proliferation of human colorectal cancer cell line HT-29, HT-29 cell culture treated with different solutions obtained from Item B of Example 2 was used for the following experiments.
Each group of the HT-29 cell culture obtained from Item B of Example 2 was washed with PBS twice followed by fixing the cells with 70% (w/v) cold ethanol for 1 hour. Then, the obtained fixed cells were washed with cold PBS followed by centrifugation at 300 g for 5 minutes. […]
Subsequently, the obtained dyed cells were subjected to cell cycle analysis using BD FACSCanto™ flow cytometer (BD Biosciences, Cat. No. 338960), and the DNA content of 1×10^4 cells was analyzed in each analysis. The cells would emit fluorescence when excited by laser beam of argon ion at 488 nm. Cell cycle profile was analyzed from DNA content histograms using BD FACSDiVa™ software (Becton Dickinson, Cat. No. 643629). […] The percentage of the cells in Sub-G1 phase was analyzed using ModFit LT software.
The obtained experimental data was analyzed according to the method described in “Statistical Analysis” in the section of “General experimental procedure”.

[7] = test system: CAL 27 cells; assay: MTT cell viability analysis, CAL 27 cells; conditions: 24 hours, OEA 50, 100, 200 μM and lycopene 2, 5 μM compared to control group, synergy groups (200 μM OEA + 2 or 5 μM lycopene) compared to OEA group 3 and lycopene groups 1 and 2, FIG. 7
Protocol: as §3, §4, §5, §6

[8] = test system: A549 cells; assay: MTT cell viability analysis, A549 cells; conditions: 24 hours, OEA 50, 100, 200 μM and lycopene 2, 5 μM compared to control group, synergy groups (200 μM OEA + 2 or 5 μM lycopene) compared to OEA group 3 and lycopene groups 1 and 2, FIG. 4
Protocol: as §3, §4, §5, §6

[9] = test system: SW-480 cells; assay: MTT cell viability analysis, SW-480 cells; conditions: 24 hours, OEA 50, 100, 200 μM and lycopene 2, 5 μM compared to control group, synergy groups (200 μM OEA + 2 or 5 μM lycopene) compared to OEA group 3 and lycopene groups 1 and 2, FIG. 3
Protocol: as §3, §4, §5, §6

[10] = test system: Huh-7 cells; assay: MTT cell viability analysis, Huh-7 cells; conditions: 24 hours, OEA 50, 100, 200 μM and lycopene 2, 5 μM compared to control group, synergy groups (200 μM OEA + 2 or 5 μM lycopene) compared to OEA group 3 and lycopene groups 1 and 2, FIG. 6
Protocol: as §3, §4, §5, §6

[11] = test system: AGS cells; assay: MTT cell viability analysis, AGS cells; conditions: 24 hours, OEA 50, 100, 200 μM and lycopene 2, 5 μM compared to control group, synergy groups (200 μM OEA + 2 or 5 μM lycopene) compared to OEA group 3 and lycopene groups 1 and 2, FIG. 8
Protocol: as §3, §4, §5, §6

[12] = test system: MDA-MB-231 cells; assay: MTT cell viability analysis, MDA-MB-231 cells; conditions: 24 hours, OEA 50, 100, 200 μM and lycopene 2, 5 μM compared to control group, synergy groups (200 μM OEA + 2 or 5 μM lycopene) compared to OEA group 3 and lycopene groups 1 and 2, FIG. 5
Protocol: as §3, §4, §5, §6

Row | SMILES | amount of p-NF-κB p65 expression [1] | cell viability percentage [2] | cell death percentage [3] | amount of cyclin D1 expression [4] | cell viability percentage [5] | percentage of HT-29 cells in Sub-G1 phase [6] | cell viability percentage [7] | cell viability percentage [8] | cell viability percentage [9] | cell viability percentage [10] | cell viability percentage [11] | cell viability percentage [12]
1 | CCCCCCCC/C=C\CCCCCCCC(=O)NCCO [OEA, oleoylethanolamide] | reduced | reduced | elevated | reduced | reduced | promote HT-29 cells to be in Sub-G1 phase | reduced | reduced | reduced | reduced | reduced | reduced
2 | CC(C)=CCC/C(C)=C/C=C/C(C)=C/C=C/C(C)=C/C=C/C=C(C)/C=C/C=C(C)/C=C/C=C(\C)CCC=C(C)C [lycopene] | reduced | reduced | elevated | reduced | reduced | promote HT-29 cells to be in Sub-G1 phase | reduced | reduced | reduced | reduced | reduced | reduced
